Molecules are shown by their SMILES.

For data set [1] the following is noted: human, in vivo; cited from earlier work. How it is done: Administration of PP to humans is not associated with adverse side effects such as nausea, unlike GLP-1 analogs and, as such, is potentially a useful agent for the regulation of food intake and the treatment of obesity. PP is a relatively small peptide (4.2 kDa) and is therefore susceptible to a number of degradative enzymes and other eliminating mechanisms. PP consequently has a short circulating half-life of approximately 7 minutes in humans ([6]). This short half-life limits the use of native PP as a practical obesity treatment. To the best of our knowledge, the mechanisms for the degradati ...

Another data set has as its target T1, mouse Y4 receptor (Mus musculus, UniProt Q61041).
T1 construct: expressed in transfected cells; host or cells: HEK293
As to the kind of experiment: Y4 receptor binding assay (125I-PP competition). The following applies: membranes of HEK293 cells overexpressing mouse Y4 receptor; competition with 125I-PP (100 pM); 90 min, 4°C; mean ± SEM of three to five separate experiments; read-out: IC50 (half maximal inhibitory concentration), Y4 receptor binding affinity. The protocol:
Transfected HEK293 cells overexpressing the mouse Y4 receptor were prepared and binding assays performed as previously described ([29]). Isolated cell membranes (protein concentration, 1 to 2 µg/mL) were incubated for 90 minutes in siliconized polypropylene tubes together with ^125I-PP [1 kBq (100 pM)] and a dose response of unlabeled competing peptides at 4°C in binding buffer [20 mM HEPES (pH 7.4), 1 mM MgCl2, 5 mM CaCl2, 0.1% bovine serum albumin, and protease inhibitors (0.2 mM phenylmethylsulfonyl fluoride, 0.1 mM Diprotin A, and 10 µM phosphoramidon ( all from Sigma-Aldrich)] in a final assay volume of 0.5 mL. PP was iodinated as previously described ([8]) using ^125I from GE Healthcare Life Sciences (Amersham, UK). Pelleted membranes were washed with 5 mL ice-cold assay buffer, and the membranes were centrifuged at 15,874g for 3 minutes at 4°C, as described, to separate bound and free label. Bound radioactivity was measured using a γ-counter (NE 1600; NE Technology Ltd, Reading, UK). Specific binding was calculated as the difference between the amount of ^125I-PP bound in the absence (total binding) and presence of 5 μM unlabeled competing peptide (nonsaturable binding). All curves were performed with points in triplicate. Half maximal inhibitory concentration values were calculated using Prism, version 5.01 (GraphPad Software Inc., San Diego, CA) using a three-parameter logistic equation for the nonlinear regression fit: Y = bottom + (top − bottom)/1 + 10^(LogEC50 − X), where EC50 is the half maximal effective concentration.

The subject of data set [2] is food intake in C57/BL6 mice. As to the kind of experiment: Acute feeding studies (food intake) in overnight-fasted mice. It counts as in vivo, mouse. The protocol:
All animal procedures were approved by the British Home Office, under the United Kingdom Animal (Scientific Procedures) Act 1986 (project license, 70/6402). Adult male C57/BL6 mice (Harlan, Wyton, UK) weighing 20 to 25 g were maintained in individual cages under controlled temperature (21°C to 23°C) and light (12-hour light/dark cycle, with lights on at 7:00 AM). The mice had ad libitum access to water and normal chow RM1 (Special Diet Services, Devon, UK), unless stated otherwise. For acclimatization, the mice were regularly handled and given 2 sham subcutaneous (SC) and/or intraperitoneal (IP) injections of saline. Before each feeding study, the mice were fasted overnight, and the injections were performed during the early light phase (8:00 to 10:00 AM). The mice were stratified by body weight. To investigate the anorectic effects of DPPIV-resistant analogs, the mice were stratified into treatment groups and administered a SC injection (maximum volume, 100 µL) of vehicle, PP, PP3-36, PP2-36, or PP-Ala0 (n = […]). Food intake was measured at 1, 2, 4, and 8 hours after injection to compare the peptides with short half-lives (PP and its endogenous degradation product, PP3-36) and, in a separate experiment, at 24 hours after injection for peptides with modifications (PP-Ala0 and PP2-36, using PP as the comparator). A PP analog with global modifications for enzyme resistance (PP-x) was also investigated and administered as a SC injection (maximum volume, 100 µL) at a high and low dose (n = 9). Food intake was measured at 1, 2, 4, and 8 hours after injection. […] This dose of phosphoramidon was sufficient to inhibit NEP activity ([30]). Food intake was measured at 1, 2, 4, 8, 24, and 48 hours after injection.

The next data set is described as follows: in vivo. The following applies: for level at time molar at 1.5 h: male, C57BL/6, mouse, plasma level of PP at 90 minutes. Also noted: species or system mouse. The protocol:
The mice were divided into four treatment groups according to body weight. A protocol similar to that used for the phosphoramidon feeding study was used, with an IP injection, followed by a SC injection 15 minutes later (maximum volume, 50 µL for each injection) of phosphoramidon (0, 7, 20, and 60 mg/kg IP), followed by PP (150 nmol/kg SC in saline; n = 4 to 6; […]). […] Additional mice (n = 2) underwent overnight fasting and were culled at 0 minutes after injection of the control substances (saline SC and vehicle IP) for measurement of the baseline levels of circulating PP. The blood was immediately removed via cardiac puncture and centrifuged at 6000 rpm (Sigma 3K18; 12348 rotor; Sigma-Aldrich) for 10 minutes. The plasma was stored at −20°C until analysis. The plasma samples were assayed using an established in-house PP RIA ([8]). The anti-PP antibody was elevated in rabbit against human PP and recognized PP (and other truncated forms) but not in other PP-fold peptides or gastrointestinal peptides. ^125I-PP was prepared using the iodogen method and purified using HPLC. The assay was performed in duplicate in a total volume of 700 µL of 0.06 M phosphate buffer (pH 7.35) containing 0.3% bovine serum albumin. The samples were incubated for 3 days at 4°C before separation of free and antibody-bound ^125I-PP using dextran-coated charcoal. The sensitivity was ≤5 fmol/tube. The intra-assay coefficient of variation was 6%.

T1 sequence (Q61041 whole entry): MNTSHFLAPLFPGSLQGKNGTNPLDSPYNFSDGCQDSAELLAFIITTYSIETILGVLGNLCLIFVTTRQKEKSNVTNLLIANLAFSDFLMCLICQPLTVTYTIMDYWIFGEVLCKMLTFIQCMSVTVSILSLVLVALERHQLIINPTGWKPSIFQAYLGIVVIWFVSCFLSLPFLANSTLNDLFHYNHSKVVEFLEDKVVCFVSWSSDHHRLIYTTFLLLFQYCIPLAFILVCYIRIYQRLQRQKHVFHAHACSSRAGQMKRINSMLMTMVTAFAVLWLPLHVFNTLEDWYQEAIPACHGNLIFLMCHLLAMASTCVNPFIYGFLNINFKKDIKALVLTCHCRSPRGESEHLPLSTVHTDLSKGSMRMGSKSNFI

Turning to `CC[C@H](C)[C@H](NC(=O)[C@H](Cc1ccc(O)cc1)NC(=O)[C@H](CCCNC(=N)N)NC(=O)[C@H](CCCNC(=N)N)NC(=O)[C@H](CC(C)C)NC(=O)[C@H](CC(=O)O)NC(=O)[C@H](C)NC(=O)[C@H](C)NC(=O)[C@H](Cc1ccc(O)cc1)NC(=O)[C@H](CCC(N)=O)NC(=O)[C@H](C)NC(=O)[C@H](CCSC)NC(=O)[C@H](CCC(N)=O)NC(=O)[C@H](CCC(=O)O)NC(=O)[C@@H]1CCCN1C(=O)[C@@H](NC(=O)[C@H](C)NC(=O)[C@H](CC(N)=O)NC(=O)[C@H](CC(=O)O)NC(=O)CNC(=O)[C@@H]1CCCN1C(=O)[C@H](Cc1ccc(O)cc1)NC(=O)[C@@H](NC(=O)[C@@H]1CCCN1C(=O)[C@H](CCC(=O)O)NC(=O)[C@H](CC(C)C)NC(=O)[C@@H]1CCCN1C(=O)[C@H](C)N)C(C)C)[C@@H](C)O)C(=O)N[C@@H](CC(N)=O)C(=O)N[C@@H](CCSC)C(=O)N[C@@H](CC(C)C)C(=O)N[C@H](C(=O)N[C@@H](CCCNC(=N)N)C(=O)N1CCC[C@H]1C(=O)N[C@@H](CCCNC(=N)N)C(=O)N[C@@H](Cc1ccc(O)cc1)C(N)=O)[C@@H](C)O` [PP, Pancreatic polypeptide], the circulating half-life entry in data set [1] was “approximately 7 minutes”. Also, the IC50 on mouse Y4 receptor came to 0.26 ± 0.04 nM. Further, the “cumulative food intake at 8 hours (0- to 8-hour interval), low dose” value in data set [2] (25 nmol/kg SC, overnight-fasted C57BL/6 mice, n = 9, mean ± SEM) is recorded as 2.36 ± 0.18 g. For the same molecule, in data set [2] (150 nmol/kg SC, overnight-fasted C57/BL6 mice, 0 to 24 hours, n = 7), the “inhibition of food intake over 24 hours vs saline” value is “did not”. Besides, the “cumulative food intake 0 to 8 hours” value in data set [2] (150 nmol/kg SC, overnight-fasted C57/BL6 mice, n = 7, mean ± SEM) amounted to 0.93 ± 0.10 g. Further, the “cumulative food intake at 48 hours, PP alone” value in data set [2] (PP 150 nmol/kg SC after vehicle IP, phosphoramidon study, fasted mice, mean ± SEM) is 6.52 ± 0.14 g. For the same molecule, the “food intake at 4 hours, PP alone” value in data set [2] (PP 150 nmol/kg SC, sitagliptin study, fasted mice, mean ± SEM) is recorded as 0.91 ± 0.04 g. For the same molecule, the level at time molar at 1.5 h in the data set “in vivo” (sc, 150 nmol/kg, PP alone) came out at 1.92 ± 0.134 nM; in the data set “in vivo” (sc, with phosphoramidon 7 mg/kg) it was 5.46 ± 0.807 nM; in “in vivo” (sc, with phosphoramidon 20 mg/kg), 5.3 ± 0.461 nM; in “in vivo” (sc, with phosphoramidon 60 mg/kg), 5.53 ± 0.348 nM. For the same molecule, the “plasma levels of PP at 45 minutes, alone vs combined with any dose of phosphoramidon” value in the data set “in vivo” (mouse) is “did not differ significantly”. In addition, in “in vivo” (mouse, sc), the “decrease of plasma level (peptide cleared) between 45 and 90 minutes after injection” value was roughly 80%. Also, the level at time molar at 0.5 h in “in vivo” (mouse, sc, 100 nmol/kg, plasma peptide level at 30 minutes after injection) is 8.74 ± 0.744 nM. The same molecule displayed a level at time molar at 2 h in “in vivo” (mouse, sc, 100 nmol/kg, plasma peptide level at 120 minutes after injection) of 2.11 ± 0.224 nM.

(Values after PMC5460925, “Degradation Paradigm of the Gut Hormone, Pancreatic Polypeptide, by Hepatic and Renal Peptidases” (Endocrinology, 2017).)
